Laboratory results published in patent publication US20030064380A1, “Anergy-regulated molecules” (The Center For Blood Research, Inc., priority 2001, published 2003).
Residues, ends and D or L forms follow the SMILES beside them. *: point of attachment. Cbz = O=C(OCc1ccccc1)*; CH2F = FC*

Test system: primary Th1 cells
Assay: protease inhibitors assay: recovery of antigen responses of anergised primary Th1 cells (ELISA or RNase protection)
Assay type: cell-based, mice
Details: single inhibitor, two experiments
Description: Th1 cells were anergised by pretreatment with 1 μg/ml plate-bound antiCD3ε in the presence of 100 μM Z-VAD.fink (Clabiochem), 5 μM NLVS (Calbiochem) and/or 10 μM lactacystein (Calbiochem) for 16 hours. After that, cells were washed three times and left resting for 48-72 hours.
Whether anergy could be prevented by including caspase and proteasome inhibitors in the first step of pretreatment with ionomycin or anti-CD3 was tested to evaluate the functional importance of proteolytic pathways in anergy induction. […] The variability likely reflects the fact that the proteasome inhibitors are toxic, and needed to be washed away hours to days before the assay stimuli (antigen/APC or anti-CD3/anti-CD28) were applied. […] Similar results were obtained with the D5 T cell clone. Thus directed proteolysis of signaling proteins may be one of several mechanisms that cooperate to maintain lymphocyte anergy.

| Compound | recovery of IL-2 production |
| --- | --- |
| COC(=O)C[C@H](NC(=O)[C@H](C)NC(=O)[C@@H](NC(=O)OCc1ccccc1)C(C)C)C(=O)CF [ZVAD] (Cbz-Val-Ala-Asp(OMe)-CH2F) | 90% |
| CC(C)CC(C=CS(C)(=O)=O)NC(=O)C(CC(C)C)NC(=O)C(CC(C)C)NC(=O)Cc1cc(I)c(O)c([N+](=O)[O-])c1 (centres unmarked) [NLVS] | 112% |
